{"source": "patent US20240033358A1", "about": "“COMBINATION THERAPIES WITH CHIMERIC ANTIGEN RECEPTOR (CAR)-EXPRESSING CELLS” (Novartis AG, priority 2020, published 2024)", "key": {"[1]": {"test_system": "SuDHL6 cells implanted subcutaneously", "assay": "In vivo double-hit lymphoma model: tumor volume after CART19 cells and/or BCL2 inhibitor", "design": "species or system NOD scid gamma (NSG) mice", "conditions": "treatment from day 15 post-implant; venetoclax 100 mg/kg daily; 1e6 CART19 cells; versus PBS vehicle, UTD or CART19 alone", "protocol": "NOD scid gamma (NSG) mice were implanted subcutaneously with a dose of 5e6 SuDHL6 cells/mouse. At day 15 post-implant, mice were randomized into treatment groups, which included: PBS vehicle negative control (FIG. 10A); PBS vehicle and 100 mg/kg of the BCL2 inhibitor, venetoclax (FIG. 10A); 1.45e6 untransduced T cells containing no CAR (UTD) (FIG. 10B); 1.45e6 untransduced T cells containing no CAR (UTD) and 100 mg/kg of the BCL2 inhibitor, venetoclax (FIG. 10B); 1e6 CART19 cells (which were at 68% positivity, total cells injected were 1.45e6) (FIG. 10C); and 1e6 CART19 cells and 100 mg/kg of the BCL2 inhibitor, venetoclax (FIG. 10C). The BCL2 inhibitor was administered daily until sacrifice. Tumor growth was monitored in these mice every three days. Tumor volume was quantified by caliper measurement at each timepoint sampled (FIGS. 10A-C)."}, "[2]": {"test_system": "adult patients with r/r DLBCL", "assay": "JULIET phase 2 trial of tisagenlecleucel: efficacy outcomes (BOR, M3 response, DOR, PFS, OS), safety and B-cell recovery, overall and by subgroup (MYC, DH/TH, TME, pre-infusion LDH)", "assay_type": "in vivo, human", "conditions": "for probability of PFS: MYC(−) patients with normal pre-infusion LDH (n=16); for Survival probability: all infused patients", "description": "Methods: JULIET (NCT02445248) was a global, phase 2 trial of autologous anti-CD19 CAR-T cell therapy in adult patients with r/r DLBCL (relapsed or refractory to ≥2 prior lines of therapy). Median follow-up was 40.3 months. The relationship between MYC overexpression, tumor microenvironment (TME) characteristics (including CD3+ T-cell infiltration, myeloid-derived suppressor cells [MDSCs], and LAG3 expression by fluorescent immunohistochemistry [IHC]), activated B-cell/germinal center B-cell [ABC/GCB] subtype, double/triple-hit (DH/TH) status, and gene mutations including TP53 with efficacy outcomes (best overall response [BOR], response at Month 3 [M3], progression-free and overall survival [PFS/OS]) were assessed. Results: 115 patients received autologous anti-CD19 CAR-T cell infusion. Among patients who were in CR at 6 months, 86% were estimated to maintain the response at 36 months. […] Median OS among all 115 infused patients was 11.1 months (95% CI, 6.6-23.9). […] Median OS of patients with CR (n=37) or PR (n=7) at M3 was not reached; 80% of patients with complete response (CR) had OS benefit≥20 months. […] Of the 23 patients with ongoing CR and B-cell count available, 11 had CD19+ B cells recovered back to normal (80 cells/μL) after 1 year, with similar patterns observed for CD20+ and CD22+ B cells (FIG. 21). The 24 month and 42 month PFS was 33% and 31% respectively (FIG. 16).\nOf the 111 patients whose baseline tumor biopsies were tested for MYC expression by immunohistochemistry (IHC), 73 patients were positive for MYC expression (MYC(+) defined as >40% of cells expressing MYC, as measured by IHC) and 38 patients were negative for MYC expression (MYC(−) defined as <40% of cells expressing MYC, as measured by IHC). BOR rates for MYC(+) and MYC(−) patients were 44% (95% CI, 32-56) and 63% (95% CI, 46-78), respectively; M3 response rates were 30% (95% CI, 20-42) and 50% (95% CI, 33-67), respectively (Table 6, and FIG. 14). By month 6, 18/38 (47%) MYC(−) patients were CR/PR compared to 18/73 (25%) of MYC(+) patients. DOR was in a plateau phase at 79% starting in MYC(−) patients (n=24) at 6 months. […] Thus, MYC(+) patients tended to have shorter PFS and OS compared with MYC(−) patients and a high-baseline of MYC expression in patients prior to treatment was associated with worse PFS and OS (FIGS. 4A-4C).\nOf the 73 MYC(+) patients, 70 of them were also tested for rearrangements in MYC, BCL2, and BCL6 by FISH in order to identify double hit (DH) (MYC/BCL2 or MYC/BCL6) or triple hit (TH) (MYC/BCL2/BCL6) lymphomas. Of the 70 MYC(+) patients, 20 had DH/TH lymphoma and a BOR rate of 40% (95% CI, 19-64). BOR rate for patients that were MYC(+) but non-DH/TH lymphoma was 48% (95% CI, 34-63).\nIn the TME analysis of baseline biopsy, a low frequency of tumor infiltrating CD3+ T cells (cutoff of ≤3%; n=16) was associated with shorter median DOR, PFS (2.2 months [95% CI, 0.92-2.8] and 4.2 months [95% Cl, 2.6-21], respectively) and OS (7 months [95% CI, 1.8-12] and 21 months [95% CI, 6.7-NE], respectively) compared with patients with ≥3% CD3+ T cells (n=64) (FIGS. 13A-13C). At month 6, only 2/16 (13%) of patients with <3% tumor-infiltrating CD3+ T cells in baseline tumors were responders compared to 23/36 (64%) responders with >3% tumor infiltrating CD3+ T cells. Patients with low or no (≤3%) tumor-infiltrating CD3+ T cells (n=16) in baseline tumor biopsies were enriched with non-responders (FIG. 22).\nPatients with the highest frequency of LAG3+CD3+ cells out of the tumor infiltrating CD3+ T cell population (cutoff of >20%; n=12) at baseline were mostly non-responders at Month 3 (FIG. 23) and all 12 patients with >20% LAG3+CD3+ cells (out of the tumor infiltrating CD3+ T cells) were non-responders at Month 6.\nThe probability of PFS in MYC(−) patients with normal LDH (n=16) was 81% at 6 months and stabilized at 75% starting at 12 months."}, "[3]": {"conditions": "LAG3+CD3+ out of CD3+ T cells ≥20% at baseline (n=12)"}, "[4]": {"conditions": "MYC(+) DH/TH patients (n = 20), r/r DLBCL, JULIET"}, "[5]": {"conditions": "MYC(+) Non-DH/TH patients (n = 50), r/r DLBCL, JULIET"}, "[6]": {"conditions": "MYC(−) patients (n = 38), r/r DLBCL, JULIET"}, "[7]": {"conditions": "baseline tumor infiltrating CD3+ T cells ≤3% (n=16)"}, "[8]": {"conditions": "of patients with a CR at 6 months"}, "[9]": {"conditions": "patients with <20% LAG3+CD3+ T cells (n=68)"}, "[10]": {"conditions": "patients with ≥3% CD3+ T cells (n=64)"}}, "data": [{"substance": "4-(4-{[2-(4-chlorophenyl)-4,4-dimethylcyclohex-1-en-1-yl]methyl}piperazin-1-yl)-N-(3-nitro-4-{[(oxan-4-yl)methyl]amino}benzenesulfonyl)-2-{1H-pyrrolo[2,3162yridinedin-5-yloxy}benzamide [venetoclax]", "values": [{"measurement": "tumor growth (tumor volume by caliper)", "setting": "[1]", "value": "slowed tumor growth"}]}, {"substance": "Tisagenlecleucel", "values": [{"measurement": "PFS", "setting": "[2]; 24 month", "value": 33, "unit": "%"}, {"measurement": "PFS", "setting": "[2]; 42 month", "value": 31, "unit": "%"}, {"measurement": "median duration of response (DOR)", "setting": "[2]; 61 patients with a response, 95% CI, 10-NE", "value": "not reached"}, {"measurement": "median OS", "setting": "[2]; [3]", "value": 4.3, "unit": "months"}, {"measurement": "median PFS", "setting": "[2]; [3]", "value": 2.1, "unit": "months"}, {"measurement": "Best Overall Response (BOR), % (95% CI)", "setting": "[2]; [4]", "value": "40 (19-64) %"}, {"measurement": "Response at Month 3 (M3), % (95% CI)", "setting": "[2]; [4]", "value": "20 (6-44) %"}, {"measurement": "Best Overall Response (BOR), % (95% CI)", "setting": "[2]; [5]", "value": "48 (34-63) %"}, {"measurement": "Response at Month 3 (M3), % (95% CI)", "setting": "[2]; [5]", "value": "36 (23-51) %"}, {"measurement": "median DOR", "setting": "[2]; MYC(+) patients", "value": 19, "unit": "months"}, {"measurement": "median OS", "setting": "[2]; MYC(+) patients", "value": 7.8, "unit": "months"}, {"measurement": "median PFS", "setting": "[2]; MYC(+) patients", "value": 2.5, "unit": "months"}, {"measurement": "Best Overall Response (BOR), % (95% CI)", "setting": "[2]; MYC(+) patients (n = 73)", "value": "44 (32-56) %"}, {"measurement": "Response at Month 3 (M3), % (95% CI)", "setting": "[2]; MYC(+) patients (n = 73)", "value": "30 (20-42) %"}, {"measurement": "BOR rate", "setting": "[2]; MYC(+) patients with DH/TH lymphoma (n=20)", "value": 40, "unit": "%"}, {"measurement": "patients CR/PR by month 6", "setting": "[2]; MYC(+) patients, 18/73", "value": 25, "unit": "%"}, {"measurement": "median DOR", "setting": "[2]; MYC(−) patients", "value": "not reached"}, {"measurement": "median OS", "setting": "[2]; MYC(−) patients", "value": 21, "unit": "months"}, {"measurement": "median PFS", "setting": "[2]; MYC(−) patients", "value": 6.2, "unit": "months"}, {"measurement": "Best Overall Response (BOR), % (95% CI)", "setting": "[2]; MYC(−) patients (n = 38)", "value": "63 (46-78) %"}, {"measurement": "Response at Month 3 (M3), % (95% CI)", "setting": "[2]; MYC(−) patients (n = 38)", "value": "50 (33-67) %"}, {"measurement": "Best Overall Response (BOR), % (95% CI)", "setting": "[2]; [6]", "value": "63 (46-78) %"}, {"measurement": "Response at Month 3 (M3), % (95% CI)", "setting": "[2]; [6]", "value": "50 (33-67) %"}, {"measurement": "DOR plateau phase", "setting": "[2]; MYC(−) patients (n=24), starting at 6 months", "value": 79, "unit": "%"}, {"measurement": "probability of PFS", "setting": "[2]; at 6 months", "value": 81, "unit": "%"}, {"measurement": "probability of PFS", "setting": "[2]; stabilized starting at 12 months", "value": 75, "unit": "%"}, {"measurement": "patients CR/PR by month 6", "setting": "[2]; MYC(−) patients, 18/38", "value": 47, "unit": "%"}, {"measurement": "median OS", "setting": "[2]; all 115 infused patients", "value": 11.1, "unit": "months"}, {"measurement": "patients estimated to maintain the response at 36 months", "setting": "[2]; among patients who were in CR at 6 months", "value": 86, "unit": "%"}, {"measurement": "relapse-free probability", "setting": "[2]; among the 61 patients with a response, at 24 and 30 months", "value": 60.4, "unit": "%"}, {"measurement": "responses across B-cell lymphoma subsets (MYC positive, MYC negative, DH/TH)", "setting": "[2]; at 1 month post-treatment", "value": "comparable"}, {"measurement": "Survival probability", "setting": "[2]; at 12 months", "value": 48.2, "unit": "%"}, {"measurement": "Survival probability", "setting": "[2]; at 24 months", "value": 40.4, "unit": "%"}, {"measurement": "Survival probability", "setting": "[2]; at 36 months", "value": 36.2, "unit": "%"}, {"measurement": "median OS", "setting": "[2]; [7]", "value": 7, "unit": "months"}, {"measurement": "median PFS", "setting": "[2]; [7]", "value": 2.2, "unit": "months"}, {"measurement": "safety signals", "setting": "[2]; median follow-up 40.3 months", "value": "No new safety signals"}, {"measurement": "patients with a relapse after 12 months", "setting": "[2]; [8]", "value": 1}, {"measurement": "patients with relapses after 6 months", "setting": "[2]; [8]", "value": 3}, {"measurement": "BOR rate", "setting": "[2]; patients MYC(+) but non-DH/TH lymphoma", "value": 48, "unit": "%"}, {"measurement": "patients maintaining longer than a 6 month response", "setting": "[2]; patients identified as MYC positive by IHC", "value": "less than 75%"}, {"measurement": "responders at month 6", "setting": "[2]; patients with <3% tumor-infiltrating CD3+ T cells in baseline tumors, 2/16", "value": 13, "unit": "%"}, {"measurement": "median OS", "setting": "[2]; [9]", "value": 21, "unit": "months"}, {"measurement": "median PFS", "setting": "[2]; [9]", "value": 4.2, "unit": "months"}, {"measurement": "responders at month 6", "setting": "[2]; patients with >3% tumor infiltrating CD3+ T cells, 23/36", "value": 64, "unit": "%"}, {"measurement": "patients with complete response (CR) with OS benefit ≥20 months", "setting": "[2]; patients with CR", "value": 80, "unit": "%"}, {"measurement": "median OS", "setting": "[2]; patients with CR (n=37) or PR (n=7) at M3", "value": "not reached"}, {"measurement": "PFS and OS compared with other patients", "setting": "[2]; patients with DH/TH lymphoma", "value": "shorter progression free survival (PFS) and overall survival (OS)"}, {"measurement": "response rate at M3", "setting": "[2]; patients with DH/TH lymphoma", "value": 20, "unit": "%"}, {"measurement": "relapse frequency", "setting": "[2]; patients with DH/TH lymphomas and high MYC expression, at 3 months and 6 months", "value": "appeared to relapse more frequently"}, {"measurement": "response rate at M3", "setting": "[2]; patients with MYC(+) but non-DH/TH lymphoma", "value": 36, "unit": "%"}, {"measurement": "median OS", "setting": "[2]; [10]", "value": 21, "unit": "months"}, {"measurement": "median PFS", "setting": "[2]; [10]", "value": 4.2, "unit": "months"}, {"measurement": "patients who were non-responders at Month 6", "setting": "[2]; the 12 patients with >20% LAG3+CD3+ cells out of tumor infiltrating CD3+ T cells", "value": 12}]}]}
